Source: patent US20060069132A1, “Azolecarboxamide herbicides” (priority 2004, published 2006)

Columns and labels:
green foxtail = test: Test C postemergence herbicide test; type: in vivo, Setaria viridis
How it was run: (§1)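 Injury scored visually against controls on a 0 (no effect) to 100 (complete control) scale, 12 to 14 days after treatment in greenhouse. Flooded paddy plants treated at 2-leaf stage; postemergence plants at 1- to 4-leaf stage, 2 to 18 cm tall.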

wild oat = test: Test C postemergence herbicide test; type: in vivo, Avenafatua
How it was run: as §1

[1] = Postemergence, 250 g ai/ha, scale 0 to 100, 0 no effect, 100 complete control
[2] = postemergence, 125 g ai/ha, scale 0 to 100
[3] = postemergence, 62 g ai/ha, scale 0 to 100
[4] = Postemergence, 500 g ai/ha, scale 0 to 100
[5] = Postemergence, 500 g ai/ha, scale 0 to 100, 0 no effect, 100 complete control

SMILES	Plant response rating, Foxtail, Green (green foxtail; [1])	Plant response rating, Foxtail, Green (green foxtail; [2])	Plant response rating, Foxtail, Green (green foxtail; [3])	Plant response rating, Oat, Wild (wild oat; [1])	Plant response rating, Oat, Wild (wild oat; [2])	Plant response rating, Oat, Wild (wild oat; [3])	Foxtail, Green plant response rating (green foxtail; [4])	Oat, Wild plant response rating (wild oat; [4])	Plant response rating, Foxtail, Green (green foxtail; [5])	Plant response rating, Oat, Wild (wild oat; [5])
CCOC(=O)c1cccc(NC(=O)c2cc(C3(C)CC3)nn2CC)c1 [Compound 295]	60	50	45	50	50	50	–	–	–	–
CCn1nc(C2(C)CC2)cc1C(=O)Nc1cc(C(=O)N2CC=CC2)ccc1F [Compound 301]	60	45	40	75	65	45	65	60	–	–
CCn1nc(C(C)(C)C)cc1C(=O)Nc1cc(OC(F)(F)F)ccc1F [Compound 338]	40	40	30	50	45	40	–	–	50	60
CCn1nc(C(C)(C)C)cc1C(=O)Nc1cccc(OS(=O)(=O)CC)c1 [Compound 408]	70	60	40	–	55	45	–	–	80	70
